{"source": "paper PMC3129046", "about": "“Engineering Laccases: In Search for Novel Catalysts” (Current Genomics, 2011)", "molecular_target": "T1, LAC3 (Trametes sp. C30, UniProt Q6TH77)", "T1 construct": "lac3 cDNA in pYES-DEST52 under GAL1 promoter, secreted by Saccharomyces cerevisiae W303-1A; 501 aa, calc", "T1 sequence (Q6TH77 24-524)": "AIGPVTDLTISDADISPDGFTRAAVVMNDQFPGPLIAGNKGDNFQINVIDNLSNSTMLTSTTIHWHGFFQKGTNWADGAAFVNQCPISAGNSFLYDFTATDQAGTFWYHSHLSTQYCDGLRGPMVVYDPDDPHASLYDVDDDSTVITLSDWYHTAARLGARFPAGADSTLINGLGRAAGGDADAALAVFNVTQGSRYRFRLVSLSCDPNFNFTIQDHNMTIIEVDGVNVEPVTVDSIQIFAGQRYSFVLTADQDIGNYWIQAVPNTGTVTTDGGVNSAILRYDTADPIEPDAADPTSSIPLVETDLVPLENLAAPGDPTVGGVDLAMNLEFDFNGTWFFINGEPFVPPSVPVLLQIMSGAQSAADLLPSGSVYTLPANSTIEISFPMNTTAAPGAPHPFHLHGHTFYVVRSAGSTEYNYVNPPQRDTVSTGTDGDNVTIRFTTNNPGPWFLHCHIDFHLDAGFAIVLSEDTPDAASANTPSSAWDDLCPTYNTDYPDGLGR", "assay": "brown halo on agar plate", "type": "cell-based", "conditions": "secreted recombinant enzyme, selective medium SGal URA", "data": [{"smiles": "COc1ccccc1O", "note": "[2-methoxyphenol]", "values": [{"measurement": "brown halo on agar plate", "value": "brown coloration resulting from the oxidation of the substrate 2-methoxyphenol by laccases"}]}]}
